In PMC8118275, “Allosteric MAPKAPK2 inhibitors improve plaque stability in advanced atherosclerosis” (PLoS ONE, 2021):

Assays:
hMK2 = hMK2 (Homo sapiens, UniProt P49137); assay: hMK2 inhibition; type: biochemical
[1] = test system: aortic root lesions of WD-fed Ldlr-/- mice; assay: Aortic root atherosclerotic lesion analysis and in situ efferocytosis in WD-fed Ldlr-/- mice; type: in vivo, mouse; settings: for total necrotic area: aortic root; for collagen content of the lesions / fibrous-cap thickness: picrosirius red; for collagen content of the lesions: percent of total lesion area; for fibrous-cap thickness: ratio of cap thickness to lesion size
Method: (§1) Eight-week-old male Ldlr^-/- mice on the C57BL/6J background were purchased from Jackson Laboratory (stock # 002207) and fed a Western-type Diet (WD) for 16 weeks (Envigo, TD.88137; 21.2% fat, 0.2% cholesterol, 48.5% carbohydrate, and 17.3% protein by weight). Between weeks 10–16 of feeding, the WD of the experimental group was supplemented with TBX-1 or TBX-2 (600 mg/kg diet) to achieve a dose of ∼30 mg/kg body weight per day, whereas control mice remained on regular WD. The study included four separate cohorts, each comprised of 5 to 10 mice per group. The mice were randomly assigned to the different cohorts. Fasting blood glucose was measured in mice that were fasted for 5 h, with free access to water, using a glucose meter. Insulin tolerance test was performed in 5 h-fasted mice by assaying blood glucose at various times after injection of insulin (0.7 IU/kg body wt i.p.). Plasma insulin levels were measured in mice that were fasted for 5 h using an ultra-sensitive mouse insulin ELISA kit (Crystal Chem). At the time of harvest, mice were euthanized using isoflurane, and blood was then removed by left ventricular puncture. Animals were provided with food and water ad libitum and housed in standard cages at 22°C in a 12-12h light-dark cycle in a barrier facility. The Columbia University IACUC provided ethical approval for these studies, and procedures were conducted in accordance with approved animal protocols.
Total lesion area and necrotic area analysis were carried out on hematoxylin and eosin (H&E)-stained aortic root lesional cross sections as previously described. Briefly, total lesion area (from internal elastic lamina to the lumen) and acellular/anuclear areas (negative for hematoxylin-positive nuclei) per cross section were quantified by taking the average of 6 sections spaced 30 μm apart beginning at the base of the aortic root. Necrotic areas were defined as anuclear areas based on absence of hematoxylin staining. Collagen staining was performed using picrosirius red as per the manufacturer’s instructions (Polysciences Inc.), and fibrous cap thickness was quantified from 3 distinct regions of the plaque and scored per lesion size as previously described. For immunofluorescence staining, frozen sections were fixed in cold acetone for 10 minutes. After blocking for 1 hour in serum-free protein blocking buffer (DAKO, catalog X0909), sections were incubated overnight at 4°C with anti–phospho-hsp25 (CST, 1:200), anti-Mac2 (1:10,000), and smooth-muscle α actin (SMαA, 1:150) antibodies, rinsed with PBS three times, incubated with fluorescently-labeled secondary antibodies for 2 hours, and counterstained with DAPI. Three slides, each with 2 sections, were assessed for each mouse.
Experimentation was carried out as previously described. In brief, acetone-fixed aortic root sections were incubated with TUNEL (Roche) followed by staining with anti-Mac2 (1:10,000) to label macrophages. Apoptotic cells were then determined to be either macrophage-associated (colocalizing or juxtaposed with macrophages) or free (not associated with macrophages). Data were plotted as a ratio of associated-to free cells, which is a measure of efferocytosis.

WD-fed Ldlr-/- mice = assay: Metabolism, plasma lipids, blood cells and tolerability in WD-fed Ldlr-/- mice with established atherosclerosis; type: in vivo, mouse; settings: ~30 mg/kg body weight per day in WD for 6 weeks; for blood leukocyte (total white blood cell) count / blood monocyte count: versus control
Method: as §1
Total plasma cholesterol and triglyceride levels were measured using commercially available kits (Wako Diagnostics). Plasma lipoproteins were analyzed by running 200 μl of pooled plasma onto a fast protein liquid chromatography system consisting of 2 Superose 6 columns connected in series (Amersham Pharmacia Biotech) as described previously.

[2] = Pharmacokinetics in CD-1 mice after single oral and intravenous administration; type: in vivo, mouse; settings: for Clearance (Cl) / Cmax / F (oral bioavailability) / Half-life: CD-1 mice, TBX-1 1 mpk iv and 5 mpk po, TBX-2 1 mpk iv and 3 mpk po; for plasma half-life: mice, intravenous and oral administration
Method: The pharmacokinetics of the compounds were evaluated in CD-1 mice by single oral and intravenous routes of drug administration. The mice were fasted overnight before oral-gavage dosing of the compounds. The solutions used for PK studies were prepared by dissolving the compounds in 5% Solutol HS 15 in water. Following oral or intravenous administration of compounds, blood samples were collected at 0.08, 0.25, 0.5, 1, 2, 4, 6, 8, 12, and 24 h after dosing. Blood samples were centrifuged to separate plasma, and compound concentrations were determined by LC-MS. Dosing was well tolerated following oral and intravenous administration of both compounds, and no abnormal behavior was observed.

[3] = test system: MK2 activity (phospho-hsp25); assay: Phospho-hsp25 (MK2 substrate) in liver and aortic root lesions of WD-fed Ldlr-/- mice; type: in vivo, mouse; settings: ~30 mg/kg body weight per day in WD for 6 weeks
Method: Eight-week-old male Ldlr^-/- mice on the C57BL/6J background were purchased from Jackson Laboratory (stock # 002207) and fed a Western-type Diet (WD) for 16 weeks (Envigo, TD.88137; 21.2% fat, 0.2% cholesterol, 48.5% carbohydrate, and 17.3% protein by weight). Between weeks 10–16 of feeding, the WD of the experimental group was supplemented with TBX-1 or TBX-2 (600 mg/kg diet) to achieve a dose of ∼30 mg/kg body weight per day, whereas control mice remained on regular WD. The study included four separate cohorts, each comprised of 5 to 10 mice per group. The mice were randomly assigned to the different cohorts. Fasting blood glucose was measured in mice that were fasted for 5 h, with free access to water, using a glucose meter. […] Plasma insulin levels were measured in mice that were fasted for 5 h using an ultra-sensitive mouse insulin ELISA kit (Crystal Chem). […]
Total lesion area and necrotic area analysis were carried out on hematoxylin and eosin (H&E)-stained aortic root lesional cross sections as previously described. Briefly, total lesion area (from internal elastic lamina to the lumen) and acellular/anuclear areas (negative for hematoxylin-positive nuclei) per cross section were quantified by taking the average of 6 sections spaced 30 μm apart beginning at the base of the aortic root. […] Three slides, each with 2 sections, were assessed for each mouse. […]

[4] = test system: forskolin-induced G6pc mRNA; assay: Forskolin-induced G6pc mRNA in primary mouse hepatocytes (RT-qPCR); type: cell-based; settings: TBX-1 1 h, then TBX-1 and forskolin 4 h in serum-free media
Method: Primary mouse hepatocytes were isolated from 8- to 12-week-old mice as described previously and cultured in media containing Dulbecco’s Modified Eagle’s Medium (DMEM) (Corning, #10-013-CV), 10% (vol/vol) heat-inactivated FBS, and 1X penicillin-streptomycin. After overnight incubation, the cells were washed twice with PBS, treated with the indicated concentrations of TBX-1 for 1 h, followed by treatment with TBX-1 and forskolin for 4 h in FBS-free media.
Immunoblot and quantitative RT-PCR (RT-qPCR) assays were conducted as previously described. […]
Densitometric quantification of the data are shown in the bar graphs (n = 5-6 mice/group; mean ± SEM, p = 0.003, p = 0.001 and p = 0.02, respectively).
S2 Fig. Blood leukocyte and monocyte counts are similar between control and MK2 inhibitor–treated mice. […] Whole blood was analyzed for the number of total white blood cells (A) and monocytes (B) from a randomly selected subset of TBX-1–treated Ldlr-/- mice (n = 19 mice/group; mean ± SEM). […]
S3 Fig. Lesional collagen content is increased, whereas macrophage and smooth muscle cell numbers are similar between control and MK2 inhibitor–treated mice. […] Picrosirius red staining was quantified, and collagen content is expressed as percent of total lesion area (n = 7-10 mice/group; mean ± SEM, p = 0.009 and p = 0.03, respectively). […]

Sequence of hMK2 (P49137 whole entry): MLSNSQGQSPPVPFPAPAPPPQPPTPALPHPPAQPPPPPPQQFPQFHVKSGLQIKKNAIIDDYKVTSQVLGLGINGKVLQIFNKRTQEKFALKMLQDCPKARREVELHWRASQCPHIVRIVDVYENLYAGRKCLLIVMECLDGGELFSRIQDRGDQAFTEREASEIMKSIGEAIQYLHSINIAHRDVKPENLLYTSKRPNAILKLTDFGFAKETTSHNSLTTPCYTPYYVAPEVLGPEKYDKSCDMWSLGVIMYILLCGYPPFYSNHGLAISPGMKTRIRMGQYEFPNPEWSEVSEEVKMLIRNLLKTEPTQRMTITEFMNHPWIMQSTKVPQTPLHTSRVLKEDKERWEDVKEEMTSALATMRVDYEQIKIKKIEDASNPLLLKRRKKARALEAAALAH

Row | Structure (SMILES) | IC50 (hMK2) [nM] | total necrotic area [1] | collagen content of the lesions [1] | fibrous-cap thickness [1] | blood leukocyte (total white blood cell) count (WD-fed Ldlr-/- mice) | blood monocyte count (WD-fed Ldlr-/- mice) | LDL-cholesterol (fast protein liquid chromatography of plasma) (WD-fed Ldlr-/- mice) | VLDL-cholesterol (fast protein liquid chromatography of plasma) (WD-fed Ldlr-/- mice) | Clearance (Cl) [2] [mL/min/kg] | Cmax [2] [nM] | F (oral bioavailability) [2] [%] | Half-life [2] [h] | plasma half-life [2] [h] | phospho-hsp25 levels in atherosclerotic lesions ([3]; aortic root sections, MFI within Mac2+ area) | phosphorylation of hsp25 in liver ([3]; liver extracts, immunoblot) | forskolin-induced G6pc mRNA [4]
1 | CN(C)C[C@H]1CC(=O)N(c2ccc3c(c2)Cn2cc(-c4ccc(C#N)cc4)cc2-c2nccn2-3)C1 [TBX-2] | 19 | significantly reduced | significantly increased | significantly increased | similar | similar | reduced | reduced | 12.2 | 296 | 89.1 | 3.1 | 3.1 | – | – | –
2 | CN(C)[C@@H]1CCN(c2ccc3c(c2)Cn2cc(-c4ccc(C#N)cc4)cc2-c2nncn2-3)C1 [TBX-1] | 67 | significantly reduced | significantly increased | significantly increased | similar | similar | reduced | reduced | 24.8 | 58 | 20.0 | 2.7 | 2.7 | significantly reduced | efficiently reduced | inhibited forskolin-induced G6pc mRNA in a dose-dependent manner
